Source: patent US20050239756A1, “Methods of treating various vitamin D metabolism conditions with 1alpha-hydroxyvitamin D2” (Bone Care International, Inc., priority 2004, published 2005)
Where “and” joins values, the source holds several entries; their conditions need not be identical. Identical values can stand only once. One block for each compound: values may come before it.

Experiments:
[1] = tested on: postmenopausal osteoporotic outpatients; experiment: 104-week placebo-controlled study of oral 1α-(OH)D2 in postmenopausal osteoporotic outpatients (Example 1); assay type: in vivo, human
Text: 1α-(OH)D2 was used to treat osteoporosis was confirmed in a study involving 60 postmenopausal osteoporotic outpatients. […] Exclusion criteria encompassed significant medical disorders and recent use of medications known to affect bone or calcium metabolism. On admission to the study, each subject was assigned at random to one of two treatment groups; one group received up to a 104-week course of therapy with 1α-(OH)D2; the other received only placebo therapy. All subjects received instruction on selecting a daily diet containing 700-900 mg of calcium and were advised to adhere to this diet over the course of the study. Compliance to the diet was verified at regular intervals by 24-hour food records and by interviews with each subject. During the treatment period, subjects from one group orally self-administered 1α-(OH)D2 at an initial dosage of 1.0 μg/day for one week, and increased the dosage to 2.0, 3.0, 4.0 μg/day in each of the following weeks, to a maximum dosage of 5.0 μg/day. The dosage for any given subject was increased in this way until the rate of urinary calcium excretion was elevated to approximately 275-300 mg/24 hours, at which point the subject held the dosage constant at the highest level attained. Subjects from the second group self-administered a matching placebo medication every day, titrating the apparent dosage upwards in the same manner as subjects being treated with 1α-(OH)D2. Spinal and femoral neck BMD were measured in all subjects by DEXA at the beginning of the study, and at six-month intervals thereafter. Intestinal calcium absorption was estimated in all subjects by a single isotope technique at the beginning of the study, and at 12-month intervals. Serum levels of vitamin D metabolites were determined by radioreceptor binding assays at baseline and at six-month intervals. Serum osteocalcin, serum PTH and urine hydroxyproline also were determined at baseline and at six-month intervals. Other blood and urine chemistries were monitored at regular intervals during the treatment period. These chemistries included serum calcium, serum ionized calcium, urine calcium, blood urea nitrogen, serum creatinine and creatinine clearance. Kidney-ureter-bladder (KUB) x-rays were obtained at baseline and at 12-month intervals thereafter.

[2] = tested on: subjects with chronic kidney disease with elevated blood PTH; experiment: 24-week double-blinded placebo-controlled study of oral doxercalciferol in secondary hyperparathyroidism with mild to moderate chronic kidney disease (Example 2); assay type: in vivo, human; conditions: for Mean (±SE) plasma iPTH: baseline 219.1±22.3 pg/mL
Text: 1α-(OH)D2 (doxercalciferol) was used as a treatment for hyperparathyroidism associated with chronic kidney disease was confirmed in a study involving 55 adults, ages 18-85 years, with mild to moderate chronic kidney disease. The subjects had plasma intact parathyroid hormone (iPTH) levels above 85 pg/mL and completed an eight-week baseline period and then 24 weeks of therapy with either orally administered doxercalciferol or placebo. The initial dose of test drug was 2 capsules daily (totaling 1.0 μg for subjects randomized to doxercalciferol treatment), with increases in steps of one capsule per day permitted after four weeks. The maximum dosage was limited to 10 capsules per day (5.0 μg/day of doxercalciferol). Subjects were monitored at regular intervals for plasma iPTH, serum calcium and phosphorus, 24-hour and fasting urinary calcium, bone-specific serum markers, plasma total 1α,25-(OH)2D, and routine blood chemistries and hematologies. Glomerular filtration rate (GFR) was measured prior to beginning the treatment and at study termination. No physical or biochemical differences were detectable between the two treatment groups prior to starting treatment. […] On enrollment, each subject was assigned, at random, in double-blinded fashion, to one of two treatment groups. Both treatment groups completed an 8-week Baseline Period (Weeks −8 to 0) and then underwent therapy with either orally administered doxercalciferol or placebo for a 24-week Treatment Period (Weeks 1 to 24). Irrespective of treatment group assignment, each subject discontinued any 1α,25-dihydroxivitamin D3 (1α,25(OH)2D3) therapy for the duration of the study. Throughout the Baseline Period and the subsequent Treatment Period, subjects were monitored at regular intervals for plasma iPTH, serum calcium, serum phosphorus, and 24-hour and fasting urinary calcium, phosphorus and creatinine. Routine blood chemistries and hematologies, bone-specific serum markers, and plasma total 1α,25(OH)2D were also monitored at selected intervals. Glomerular filtration rate (GFR) was measured prior to beginning treatment and at termination. Subjects qualified for inclusion in the Baseline Period if they were aged 18 to 85 years, had mild to moderate CR1 with serum creatinine between 1.8 to 5.0 mgldL (for men) or 1.6 to 4.0 mg/dL (for women), and had elevated plasma iPTH values (>85 pg/mL). Subjects receiving ongoing treatment with estrogen were required to maintain the same estrogen dosing regimen throughout the study. Subjects who began dialysis treatment or underwent renal transplantation were required to prematurely terminate participation. […] Patients were also excluded who had hypercalcemia, hyperthyroidism, sarcoidosis, malignancy requiring chemotherapy, hormonal therapy and/or radiation treatment, chronic gastrointestinal disease (i.e., malabsorption, surgery affecting absorption, and chronic ulcerative colitis), hepatic impairment, or any other condition which may have put the patient at undue risk. […] The two studies were conducted under double-blind conditions in each geographical region. Assignments of subjects to the two treatment groups were made randomly, by geographical region, in order of enrollment. The randomization was accomplished in subgroups of size 10, 5 subjects assigned to each of the two treatment groups. The randomization was performed by an independent statistician using the Statistical Analysis System (SAS). 1α-hydroxyvitamin D2 (available as doxercalciferol from Bone Care International) was formulated for oral administration as soft elastic gelatin capsules in units of 0.5 mcg/capsule. […] The initial dose of test drug (doxercalciferol or placebo) was 2 capsules (totaling a 1.0 μg dose for subjects receiving doxercalciferol) every day before breakfast. This dosage was increased as necessary at monthly intervals, to suppress plasma iPTH levels by at least 30% from baseline. […]

[3] = tested on: subjects with low serum calcium; experiment: 24-week oral doxercalciferol therapy in subjects with low serum calcium (Example 3); assay type: in vivo, human
Protocol: 1α-(OH)D2 (doxercalciferol) is used as a treatment for subjects with low serum calcium in a study involving 50 adults, ages 18-85 years. The subjects have serum calcium levels below 8.6 mg/dL and complete an eight-week baseline period and then 24 weeks of therapy with orally administered doxercalciferol. The initial dose of 1α-(OH)D2 is 2 capsules daily (totaling 1.0 μg), with increases in steps of one capsule per day permitted after four weeks. The maximum dosage is limited to 10 capsules per day (5.0 μg/day of doxercalciferol). Subjects are monitored at regular intervals for plasma iPTH, serum calcium and phosphorus, 24-hour and fasting urinary calcium, bone-specific serum markers, plasma total 1α,25-(OH)2D, and routine blood chemistries and hematologies.

[4] = tested on: subjects with low serum 1,25-dihydroxyvitamin D; experiment: 24-week oral doxercalciferol therapy in subjects with low serum 1,25-dihydroxyvitamin D (Example 4); assay type: in vivo, human
Protocol: 1α-(OH)D2 (doxercalciferol) is used as a treatment for subjects with low serum 1,25-dihydroxyvitamin D in a study involving 50 adults, ages 18-85 years. The subjects have serum 1,25-dihydroxyvitamin D levels below […] and complete an eight-week baseline period and then 24 weeks of therapy with orally administered doxercalciferol. The initial dose of 1α-(OH)D2 is 2 capsules daily (totaling 1.0 μg), with increases in steps of one capsule per day permitted after four weeks. The maximum dosage is limited to 10 capsules per day (5.0 μg/day of doxercalciferol). Subjects are monitored at regular intervals for plasma iPTH, serum calcium and phosphorus, 24-hour and fasting urinary calcium, bone-specific serum markers, plasma total 1α,25-(OH)2D, and routine blood chemistries and hematologies.

PTH levels = conditions: Malluche et al., Nephrol. Dial. Transplant., 2004; cited from earlier work
[5] = Treatment Period, active treatment
[6] = after the 24 week treatment period

Serum 1α,25-(OH)2D2 ([1]; during treatment): dramatic rise
Mild hypercalcemia (10.2-10.4 mg/dL), subjects affected ([1]; first year): four
Moderate hypercalcemia (10.4-10.8 mg/dL), subjects affected ([1]; over the course of the study, prescribed dosages 5.0 μg/day): two
Hypercalciuria observed occasionally, subjects affected ([1]; over the two-year study): 17 subjects
Marked hypercalcemia (>10.8 mg/dL), subjects affected ([1]; prescribed dosage 5.0 μg/day, in association with an intercurrent illness): one
Mild hypercalcemia (10.2-10.4 mg/dL), subjects affected ([1]; second year): two
Episodes of hypercalciuria (24-hour urine calcium >200 mg or fasting urine Ca/Cr ratio above 0.25) ([2]; Treatment Period): No episodes
Episodes of hyperphosphatemia (serum phosphorus >5.0 mg/dL) [2, 5]: 15 episodes
Subjects with hyperphosphatemia (serum phosphorus >5.0 mg/dL) [2, 5]: 10 subjects
Mean (±SE) serum phosphorus ([2]; Week 24, baseline 4.02±0.15 mg/dL): 4.27 ± 0.13 mg/dL
Mean (±SE) serum calcium ([2]; Week 24, baseline 8.74±0.12 mg/dL): 9.14 ± 0.11 mg/dL
Duration of hypercalcemia episode ([2]; episode with onset in Week 4): 5 weeks
Maximum serum calcium recorded during hypercalcemia episode ([2]; episode with onset in Week 4, one subject): 10.9 mg/dL
Duration of hypercalcemia episode ([2]; episode with onset in Week 16): 8 weeks
Maximum serum calcium recorded during hypercalcemia episode ([2]; episode with onset in Week 16, one subject): 11.0 mg/dL
Episodes of hypercalcemia (corrected serum calcium >10.7 mg/dL) ([2]; in one subject, onsets Week 4 and Week 16): Two
Serum calcium in the excepted subject during treatment ([2]; one subject with pre-treatment serum calcium as high as 10.7 mg/dL): 11.0 mg/dL
Average serum phosphorous levels [3, 6]: 2.4 to 5 mg/dL
Serum bone-specific markers alkaline phosphatase, N- and C-telopeptides, and osteocalcin [3, 6]: average normal levels
Average serum phosphorous levels [4, 6]: 2.4 to 5 mg/dL
Serum bone-specific markers alkaline phosphatase, N- and C-telopeptides, and osteocalcin [4, 6]: average normal levels
SMILES: C=C1/C(=C\C=C2/CCC[C@]3(C)[C@@H]([C@H](C)/C=C/[C@H](C)C(C)C)CC[C@@H]23)C[C@@H](O)C[C@@H]1O [1α-(OH)D2, 1α-hydroxyvitamin D2]
Increase in intestinal absorption of orally administered Ca relative to placebo control ([1]; after 52 weeks, P<0.001): 40%
Increase in intestinal absorption of orally administered Ca relative to placebo control ([1]; after 104 weeks, P<0.5): 29%
Decrease in serum levels of PTH relative to placebo therapy ([1]; at 1-4 weeks (so in the source)): 25%
Increase in mean serum total 1α,25-(OH)2D3 relative to placebo therapy ([1]; at 24 months, P<0.01): 49%
Decrease in serum levels of PTH relative to placebo therapy ([1]; at 52 weeks): 17%
Increase in mean serum total 1α,25-(OH)2D3 relative to placebo therapy ([1]; at six months, P<0.05): 21%
Mean urine calcium during initial titration period ([1]; dosage titrated 1.0 to 5.0 μg/day): increased during the initial titration period in a dose-response fashion
Bone mineral density (BMD) in the L2-L4 vertebrae ([1]; two-year study, decreased with placebo, difference P<0.05 after 24 months): progressively increased
Renal function and rates of adverse events vs placebo ([2]; 24 weeks): No differences between treatment groups
Subjects achieving plasma iPTH suppression of ≧30% from baseline (percentage) ([2]; 27 subjects in the active group, mean of Weeks 20 and 24, placebo 7.1%): 74%
Mean serum osteocalcin, upward trend from baseline ([2]; Week 4): ~10%
Mean (±SE) plasma iPTH ([2]; Week 4): 165 ± 15 pg/mL
Mean reduction of plasma iPTH from baseline ([2]; Week 8): 26.3%
Mean serum osteocalcin, decline from baseline ([2]; Week 24): about 20%
Mean (±SE) plasma iPTH ([2]; Week 24, p<0.001 vs. baseline): 118 ± 17 pg/mL
Mean reduction (suppression) of plasma iPTH from baseline ([2]; Week 24, p<0.001): 45.6%
Mean alkaline phosphatase ([2]; Weeks 16 and 24, p<0.05): reduced significantly from baseline
Mean serum total 1,25-dihydroxyvitamin D levels ([2]; all treatment weeks, did not differ significantly between groups): increased significantly from baseline
Mean reduction in serum bone-specific alkaline phosphatase (BSAP) from baseline ([2]; by Week 16): 19.7±3.7%
Mean reduction in serum bone-specific alkaline phosphatase (BSAP) from baseline ([2]; by Week 24): 27.9±4.6%
Rise in mean serum 1,25-dihydroxyvitamin D from baseline levels ([2]; during treatment, no change in placebo group): ~50%
iPTH increase in an individual subject ([2]; end of treatment, one subject): 3.9%
iPTH reduction in individual subjects not reaching ≧30% suppression ([2]; end of treatment, single subjects, listed as doxercalciferol): 24.0% and 24.2% and 19.6%
Subjects achieving plasma iPTH suppression of ≧30% from baseline (number) ([2]; of 27 subjects in the active group, mean of Weeks 20 and 24): 20 subjects
iPTH increase in a subject at discontinuation ([2]; one subject, discontinued in Week 5): 22.8%
Plasma iPTH suppression from baseline in a subject at discontinuation ([2]; one subject, discontinued in Week 8): 27.9%
Plasma iPTH suppression in a subject at discontinuation ([2]; one subject, discontinued in Week 17): 44.4%
Serum C- and N-telopeptides and bone-specific alkaline phosphate ([2]; relative to baseline and placebo treatment, p<0.01): decreased
Serum 1,25-dihydroxyvitamin D levels between doses ([3]; between doses of 1α-(OH)D2): within the patients normal historical physiological range
Serum 1,25-dihydroxyvitamin D levels between doses ([4]; between doses of 1α-(OH)D2): within the patients normal historical physiological range

SMILES: C=C1/C(=C\C=C2/CCC[C@]3(C)[C@@H]([C@H](C)CCCC(C)(C)O)CC[C@@H]23)C[C@@H](O)C[C@@H]1O [calcitriol, 1,25-dihydroxyvitamin D3]
Effect of treatment on PTH levels (PTH levels): over suppression of PTH levels
